Experimental data reported in US20110118236A1, “HETEROCYCLIC COMPOUND” (priority 2008, published 2011).

Target: T1, AMPA receptor (human GluR1 flip/stargazin expressed in CHO-K1 cells) (Homo sapiens, UniProt P42261)
T1 construct: expressed in transfected cells; host or cells: CHO-K1
Assay: Assay of AMPA receptor potentiation by compounds, using calcium influx as an indicator
Assay type: cell-based
Conditions: compound 30 μM with glutamic acid final concentration 3 mM, 100% = glutamic acid 3 mM + 300 μM cyclothiazide, 0% = glutamic acid only, change over 3 minutes
Description: (1) Construction of Expression Genes
Human GluR1 flip cDNA was amplified by PGR using the forward primer ACTGAATTCGCC […] (SEQ ID: 1), and the reverse primer CCGCGGC […] (SEQ ID: 2), which had been artificially synthesized using human brain-derived cDNA (BD Bioscience) as template. The amplified product was digested with the restriction enzymes EcoRI and NotI. (Takara Shuzo Co., Ltd.), and was then incorporated at the same site of peDNA3.1(+) (Invitrogen) to construct; the pcDNA3.1(+)/human GluR1 flip gene. Human stargazin cDNA was amplified by PCR using the forward primer GGTC TCGAGOCCACCATGGOGCTGTTTGATCGAGGTGTTCA (SEQ ID: δ 3), and the reverse primer […] (SEQ ID: 4), which had been artificially synthesized using human hippocampal cDNA as template. The amplified product was digested with the restriction enzymes XhoI and BamHI (Takara Shuzo Co., Ltd.), and was then incorporated at the same site of pcDNA3.1(−) (Invitrogen) to construct the pcDN.A3.1. Zeo(−)/human stargazin gene.
(2) Construction of Cells Expressing GluR1 Flip/Stargazin
CHO-K1 cells passaged in culture media (Ham's F12 media (Invitrogen) supplemented with […] inactivated fetal bovine serum (Morgate), penicillin, and streptomycin (Invitrogen)) were separated using 0.05% trypsin diluted with D-PBS(−), and 0.53 mM EDTA (Invitrogen). The separated cells were suspended in culture media and harvested by centrifugation at 1,000 rpm. The harvested cells were re-suspended in D-PBS(−) and introduced into a 0.4 cm electroporation cuvette (BioRad). The pcDNA3.1(+)/human GluR1 flip gene (5 μg) and pcDNA3.1 Zeo(−)/human stargazin gene (15 μg) were added, and were introduced into the CHO-K1 cells using a Gene Pulser II (BioRad) at 950 μFd and […]. The cells were incubated overnight in culture media, and on the next day 96-well plates were seeded with 250 cells/well using selection media (Zeocin (Invitrogen) in a concentration of 250 μg/mL in culture media). Drug resistant clones were selected, and clones expressing GluR1 flip/stargazin were selected by the following assay using calcium influx as an indicator.
(3) Assay of AMPA receptor potentiation by compounds, using calcium influx as an indicator 96-well black-bottomed clear plates (Costar) were seeded with the CHO-K1/GluR1 flip/stargazin expressing cells (2×10^4 cells/well), and were incubated for 2 days at 37° C. in a CO2 incubator (Sanyo). The cell plate media was removed, and assay buffer A (D-MEM (Invitrogen), 0.1% BSA (Serological Protein, Inc.), and 20 mM HEPES (invitrogen)) was added to a concentration of 50 μL/well. A calcium indicator (Calcium Kit B-Fluo4 for TKB, Dojindo Laboratories) containing 2.5 mM probenecid (Dojindo Laboratories) was added to a concentration of 50 μL/well, and the plates were allowed to stand for 1 hour at 37° C. in a CO2 incubator. The cell plates were set up on a CellLux (PerkinElmer), a 50 pt mixture of 9 mM glutamic acid diluted (final concentration 3 mM) with assay buffer B (HBSS (Invitrogen), 0.1% BSA, and 20 mM HEPES) and the compound to be tested (concentration of compound to be detected: 30 μM) was added, and the change in the level of fluorescence over a period of 3 minutes was determined. The compound activity was calculated using the following equation, wherein the change in fluorescence in wells containing glutamic acid (final concentration 3 mM) and 300 μM cyclothiazide (TOCRIS) was defined as 100%, and the change in fluorescence in wells containing only glutamic acid (final concentration 3 mm) was defined as 0%.
Activity (%)=(X−C)/(T−C)×1.00
T: change in fluorescence in wells containing glutamic acid (final concentration 3 mM) and 300 μM cyclothiazide C: change in fluorescence in wells containing only glutamic acid (final concentration 3 mM) X: change in fluorescence in wells containing compound to be detected

T1 sequence (P42261 19-906 isoform P42261-2 limits assumed): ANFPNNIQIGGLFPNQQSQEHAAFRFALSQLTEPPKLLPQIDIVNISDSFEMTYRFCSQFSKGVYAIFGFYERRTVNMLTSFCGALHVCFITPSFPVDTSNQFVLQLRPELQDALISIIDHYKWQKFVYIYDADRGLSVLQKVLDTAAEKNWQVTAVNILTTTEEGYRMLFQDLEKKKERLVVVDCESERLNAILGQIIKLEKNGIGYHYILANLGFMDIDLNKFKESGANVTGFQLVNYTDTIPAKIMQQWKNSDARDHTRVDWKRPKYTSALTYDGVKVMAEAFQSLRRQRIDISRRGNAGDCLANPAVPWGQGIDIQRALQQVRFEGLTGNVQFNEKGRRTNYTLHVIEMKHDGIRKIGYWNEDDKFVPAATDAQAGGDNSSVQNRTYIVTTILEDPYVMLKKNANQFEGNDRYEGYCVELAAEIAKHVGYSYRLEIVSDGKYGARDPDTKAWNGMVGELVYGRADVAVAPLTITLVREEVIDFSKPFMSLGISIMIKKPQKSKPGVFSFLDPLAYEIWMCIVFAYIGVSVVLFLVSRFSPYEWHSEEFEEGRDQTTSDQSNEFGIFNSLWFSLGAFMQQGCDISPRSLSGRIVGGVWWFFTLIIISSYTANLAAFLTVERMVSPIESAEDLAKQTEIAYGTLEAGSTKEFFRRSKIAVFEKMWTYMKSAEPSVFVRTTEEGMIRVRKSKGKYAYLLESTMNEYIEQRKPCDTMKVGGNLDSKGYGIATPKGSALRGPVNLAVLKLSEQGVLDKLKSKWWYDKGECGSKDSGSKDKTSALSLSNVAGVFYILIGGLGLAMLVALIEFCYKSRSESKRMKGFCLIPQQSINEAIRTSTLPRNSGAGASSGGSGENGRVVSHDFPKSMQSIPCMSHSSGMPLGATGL
T1 sequence (Q9Y698 whole entry partner): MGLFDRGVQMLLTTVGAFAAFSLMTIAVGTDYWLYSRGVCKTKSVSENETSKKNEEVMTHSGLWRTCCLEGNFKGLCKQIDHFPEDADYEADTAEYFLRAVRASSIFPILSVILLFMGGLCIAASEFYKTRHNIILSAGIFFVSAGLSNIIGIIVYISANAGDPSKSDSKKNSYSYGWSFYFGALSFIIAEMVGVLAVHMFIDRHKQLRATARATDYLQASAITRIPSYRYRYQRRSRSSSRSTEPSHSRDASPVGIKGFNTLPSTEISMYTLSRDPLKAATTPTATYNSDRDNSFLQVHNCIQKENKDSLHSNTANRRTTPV

Activity (%) of AMPA receptor potentiation (change in fluorescence, calcium influx)	SMILES
70%	NC(=O)c1c(NC(=O)Cn2nc(C(F)(F)F)c3c2CCNC3)sc2c1CCCC2 [Example 190, 2-({[3-(Trifluoromethyl)-4,5,6,7-tetrahydro-1H-pyrazolo[4,3-c]pyridin-1-yl]acetyl}amino)-4,5,6,7-tetrahydro-1-benzothiophene-3-carboxamide]
82%	Cc1cc(C(F)(F)F)n2ncc(-c3noc(Cn4nc(C(F)(F)F)c5c4CCC5)n3)c2n1 [Example 278]
76%	Cc1cc(C(F)(F)F)n2ncc(-c3noc(Cn4nc(C(F)(F)F)c5c4CCCC5)n3)c2n1 [Example 283, 5-Methyl-7-(trifluoromethyl)-3-(5-{[3-(trifluoromethyl)-4,5,6,7-tetrahydro-1H-indazol-1-yl]methyl}-1,2,4-oxadiazol-3-yl)pyrazolo[1,5-a]pyrimidine]
86%	CSc1sc(C(=O)NCCn2nc(C(F)(F)F)c3c2CCCC3)c2nc(C)n(C)c12 [Example 280, 1,2-Dimethyl-6-(methylsulfanyl)-N-{2-[3-(trifluoromethyl)-4,5,6,7-tetrahydro-1H-indazol-1-yl]ethyl}-1H-thieno[3,4-d]imidazole-4-carboxamide]
78%	CNC(=O)N1CCc2c(c(C(F)(F)F)nn2CC(=O)Nc2cc(Cl)ccc2OC)C1 [Example 229, 1-{2-[(5-Chloro-2-methoxyphenyl)amino]-2-oxoethyl}-N-methyl-3-(trifluoromethyl)-1,4,6,7-tetrahydro-5H-pyrazolo[4,3-c]pyridine-5-carboxamide]
74%	COc1ccc(Cl)cc1NC(=O)Cn1nc(C(F)(F)F)c2c1CCN(C(C)=O)C2 [Example 226, 2-[5-Acetyl-3-(trifluoromethyl)-4,5,6,7-tetrahydro-1H-pyrazolo[4,3-c]pyridin-1-yl]-N-(5-chloro-2-methoxyphenyl)acetamide]
80%	COc1ccc(Cl)cc1NC(=O)Cn1nc(C(F)(F)F)c2c1CNCC2 [Example 196, N-(5-Chloro-2-methoxyphenyl)-2-[3-(trifluoromethyl)-4,5,6,7-tetrahydro-1H-pyrazolo[3,4-c]pyridin-1-yl]acetamide]
68%	CSc1sc(C(=O)NCCn2nc(C(F)(F)F)c3c2CCCC3)c2c1C(O)CCC2 (centres unmarked) [Example 287, 4-Hydroxy-3-(methylsulfanyl)-N-{2-[3-(trifluoromethyl)-4,5,6,7-tetrahydro-1H-indazol-1-yl]ethyl}-4,5,6,7-tetrahydro-2-benzothiophene-1-carboxamide]
88%	NC(=O)c1c(NC(=O)Cn2nc(C(F)(F)F)c3c2CNCC3)sc2c1CCCC2 [Example 185, 2-({[3-(Trifluoromethyl)-4,5,6,7-tetrahydro-1H-pyrazolo[3,4-c]pyridin-1-yl]acetyl}amino)-4,5,6,7-tetrahydro-1-benzothiophene-3-carboxamide]
75%	FC(F)(F)c1nn(Cc2nc(-c3cnccn3)no2)c2c1CCCC2 [Example 277, 1-[(3-Pyrazin-2-yl-1,2,4-oxadiazol-5-yl)methyl]-3-(trifluoromethyl)-4,5,6,7-tetrahydro-1H-indazole]
85%	O=C(c1csc(Cn2nc(C(F)(F)F)c3c2CCCC3)n1)N1CCCC1 [Example 145, 1-{[4-(Pyrrolidin-1-ylcarbonyl)-1,3-thiazol-2-yl]methyl}-3-(trifluoromethyl)-4,5,6,7-tetrahydro-1-H-indazole]
62%	FC(F)(F)c1nn(Cc2nc(-c3cccs3)no2)c2c1COCC2 [Example 279, 1-[(3-Thiophen-2-yl-1,2,4-oxadiazol-5-yl)-methyl]-3-(trifluoromethyl)-1,4,6,7-tetrahydropyrano[4,3-c]pyrazole]
86%	FC(F)(F)c1nn(Cc2nnc(-c3cccs3)o2)c2c1CCCC2 [Example 272, 1-[(5-Thiophen-2-yl-1,3,4-oxadiazol-2-yl)methyl]-3-(trifluoromethyl)-4,5,6,7-tetrahydro-1H-indazole]
79%	Cc1cc(C)n2ncc(-c3noc(Cn4nc(C(F)(F)F)c5c4CCCC5)n3)c2n1 [Example 276, 5,7-Dimethyl-3-(5-{[3-(trifluoromethyl)-4,5,6,7-tetrahydro-1H-indazol-1-yl]methyl}-1,2,4-oxadiazol-3-yl)pyrazolo[1,5-a]pyrimidine]
